Tests used:
blackgrass [1] = test: Test Example 4: herbicidal effect by soil treatment (Table 19, symbol J); type: in vivo, blackgrass (Alopecurus myosuroides); details: amount of applied herbicide 320 g/ha
Method in brief: (§1)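 Three weeks of greenhouse growth at 25° C. to 30° C. followed a uniform surface spray of water-diluted emulsion at a predetermined herbicide amount. Seeds had been sown beforehand under about 1.5 cm of sterilized diluvial soil. Grading followed criteria set out in an earlier test.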

Japanese bulrush [2] = test: Test Example 1: herbicidal activity, application before weed generation under submerged conditions (Table 16, symbol B); type: in vivo, Japanese bulrush (Schoenoplectus juncoides); details: amount of applied herbicide 320 g/ha
Method in brief: (§2)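 Emulsion formulation, water-diluted to set dose, was put onto the flooded surface (4 cm depth, alluvial soil) the same day weeds were sown and 2.5-leaf rice transplanted. After 3 weeks at 25-30 °C under glass, each species was rated 0 (≤5% kill) to 5 (≥90% kill).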

blackgrass [3] = test: Test Example 5: herbicidal effect by foliage application, plastic box (Table 20, symbol J); type: in vivo, blackgrass (Alopecurus myosuroides); details: foliage application, 320 g/ha, three weeks after application
Method in brief: (§3)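 Plants sown in sterilized diluvial soil and grown 14 days in a greenhouse at 25° C to 30° C, then sprayed on the foliage with the compound's emulsion diluted in water to a predetermined herbicide amount. Injury to weeds and crops scored three weeks after application on a visual rating scale.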

Italian ryegrass = test: Test Example 4: herbicidal effect by soil treatment (Table 19, symbol K); type: in vivo, Italian ryegrass (Lolium multiflorum); details: amount of applied herbicide 320 g/ha
Method in brief: as §1

barnyard grass [4] = test: Test Example 4: herbicidal effect by soil treatment (Table 19, symbol H); type: in vivo, barnyard grass (Echinochloa crus-galli); details: amount of applied herbicide 320 g/ha
Method in brief: as §1

late watergrass = test: Test Example 1: herbicidal activity, application before weed generation under submerged conditions (Table 16, symbol A); type: in vivo, late watergrass (Echinochloa oryzicola); details: amount of applied herbicide 320 g/ha
Method in brief: as §2

wild oat [5] = test: Test Example 5: herbicidal effect by foliage application, plastic box (Table 20, symbol I); type: in vivo, wild oat (Avena fatua); details: foliage application, 320 g/ha, three weeks after application
Method in brief: as §3

barnyard grass [6] = test: Test Example 5: herbicidal effect by foliage application, plastic box (Table 20, symbol H); type: in vivo, barnyard grass (Echinochloa crus-galli); details: foliage application, 320 g/ha, three weeks after application
Method in brief: as §3

green foxtail = test: Test Example 5: herbicidal effect by foliage application, plastic box (Table 20, symbol G); type: in vivo, green foxtail (Setaria viridis); details: foliage application, 320 g/ha, three weeks after application
Method in brief: as §3

wild oat [7] = test: Test Example 4: herbicidal effect by soil treatment (Table 19, symbol I); type: in vivo, wild oat (Avena fatua); details: amount of applied herbicide 320 g/ha
Method in brief: as §1

redroot pigweed = test: Test Example 4: herbicidal effect by soil treatment (Table 19, symbol N); type: in vivo, redroot pigweed (Amaranthus retroflexus); details: amount of applied herbicide 320 g/ha
Method in brief: as §1

southern crabgrass = test: Test Example 4: herbicidal effect by soil treatment (Table 19, symbol F); type: in vivo, southern crabgrass (Digitaria ciliaris); details: amount of applied herbicide 320 g/ha
Method in brief: as §1

oval-leafed pondweed = test: Test Example 2: herbicidal activity, application during weed generation under submerged conditions (Table 17, symbol C); type: in vivo, oval-leafed pondweed (Monochoria vaginalis); details: AAH 320 g/ha; application during weed generation, submerged conditions
Method in brief: (§4)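 Wagner pot, alluvial soil, 4 cm flood; mixed sowing of all species; greenhouse 25° C.–30° C. Emulsifiable formulation, water-diluted to predetermined dose, applied to paddy water at 1–2 leaf stage. Effect rated at 3 wk using the earlier test's scoring criteria.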

Japanese bulrush [8] = test: Test Example 2: herbicidal activity, application during weed generation under submerged conditions (Table 17, symbol B); type: in vivo, Japanese bulrush (Schoenoplectus juncoides); details: AAH 320 g/ha; application during weed generation, submerged conditions
Method in brief: as §4

Row | SMILES | J: blackgrass, herbicidal effect grade (blackgrass [1]) | Herbicidal effect, B: Japanese bulrush (Japanese bulrush [2]) | herbicidal effect on blackgrass (J) (blackgrass [3]) | K: Italian ryegrass, herbicidal effect grade (Italian ryegrass) | H: barnyard grass, herbicidal effect grade (barnyard grass [4]) | Herbicidal effect, A: late watergrass (late watergrass) | herbicidal effect on wild oat (I) (wild oat [5]) | herbicidal effect on barnyard grass (H) (barnyard grass [6]) | herbicidal effect on green foxtail (G) (green foxtail) | I: wild oat, herbicidal effect grade (wild oat [7]) | N: redroot pigweed, herbicidal effect grade (redroot pigweed) | F: southern crabgrass, herbicidal effect grade (southern crabgrass) | herbicidal effect rating, C: oval-leafed pondweed (oval-leafed pondweed) | herbicidal effect rating, B: Japanese bulrush (Japanese bulrush [8])
1 | COc1cc(F)ccc1-c1sc2cc(C)c(C)cc2c1-c1c(O)c(C)nn(C)c1=O [5-101] | 0 (Herbicidal rate of 5% or less (almost no effect)) | 3 (Herbicidal rate of 40% or more and less than 70%) | 4 (Herbicidal rate of 70% or more and less than 90%) | 4 (Herbicidal rate of 70% or more and less than 90%) | 0 (Herbicidal rate of 5% or less (almost no effect)) | 3 (Herbicidal rate of 40% or more and less than 70%) | 0 (Herbicidal rate of 5% or less (almost no effect)) | 3 (Herbicidal rate of 40% or more and less than 70%) | 4 (Herbicidal rate of 70% or more and less than 90%) | 0 (Herbicidal rate of 5% or less (almost no effect)) | 1 (Herbicidal rate of 5% or more and less than 20%) | 0 (Herbicidal rate of 5% or less (almost no effect)) | 2 (Herbicidal rate of 20% or more and less than 40%) | 2 (Herbicidal rate of 20% or more and less than 40%)
2 | COc1ccccc1-c1sc2c(Br)c(OC)ccc2c1-c1c(O)c(C)nn(C)c1=O [7-002] | 0 (Herbicidal rate of 5% or less (almost no effect)) | 3 (Herbicidal rate of 40% or more and less than 70%) | 0 (Herbicidal rate of 5% or less (almost no effect)) | 0 (Herbicidal rate of 5% or less (almost no effect)) | 2 (Herbicidal rate of 20% or more and less than 40%) | 3 (Herbicidal rate of 40% or more and less than 70%) | 0 (Herbicidal rate of 5% or less (almost no effect)) | 5 (Herbicidal rate of 90% or more (almost completely withered)) | 5 (Herbicidal rate of 90% or more (almost completely withered)) | 0 (Herbicidal rate of 5% or less (almost no effect)) | 5 (Herbicidal rate of 90% or more (almost completely withered)) | 1 (Herbicidal rate of 5% or more and less than 20%) | 2 (Herbicidal rate of 20% or more and less than 40%) | 2 (Herbicidal rate of 20% or more and less than 40%)

— patent publication US20230085307A1, “PYRIDAZINONE COMPOUND AND HERBICIDE” (NISSAN CHEMICAL CORPORATION, priority 2019, published 2023)
